Assay results from patent publication US20250262139A1, “POLYPEPTIDES AND METHODS FOR IMPROVING SKIN CONDITIONS” (INTERK PEPTIDE THERAPEUTICS LIMITED, priority 2020, published 2025).
“Also recorded” adds a separate entry of the source. Where no end group is shown, it is not given here. [ ]: non-standard residue; d: D form.

What was measured:
[1] = system: ICR mice, punch skin wound; assay: murine wound model, wound closure; format: in vivo; conditions: topical 10 μg per mouse daily for 10 consecutive days
From the text: FIGS. 1 and 2 illustrate the effect of polypeptides IK34720 (SEQ ID NO: 3—RSKAKNPLYRRRRRRRRR) (FIG. 1) and the dextro-reverso sequence IK236770 (SEQ ID NO: 4—rrrrrrrrrylpnkaksr) (FIG. 2), on wound healing over 10 days in a murine wound model in accordance with the following protocol.
Three groups of 8 male ICR mice with a mean weight of 22 g (+2 g) were used in the present study. The animals were housed in individual cages during the study. Under isoflurane gas anaesthesia, the shoulder and back region of each animal was shaved and a sharp punch (ID 12 mm) was used to induce a wound by removing the skin, including panniculus carnosus and adherent tissues on Day 1.
Following induction of the wound the polypeptides IK34720 and IK236770 were topically administered to the site of the wound at a dosage of 10 μg per animal. […] An additional group which comprised the administration of Phosphate buffered Saline (PBS) at pH 7.4 was used as a negative control.
The wound healing was analysed on Days 5, 7, 9 and 11 by tracing the periphery of the wound onto clear plastic sheets with the wound area calculated by an Image analyzer ProPlus (Media Cybernetics, Version 4.5.0.29. The percentage closure of the wound (%) was calculated. Percentage closure of the wound was determined on 5, 7, 9 and 11. ANOVA and Dunnett's test were applied to test significant significance between the treated groups (peptide and positive control groups) and the negative control group at each time point of measurement. Differences were considered statistically significant at P<0.05, and are indicated by *.

[2] = system: dermal fibroblasts; assay: TBARS lipid peroxidation assay, UV-irradiated dermal fibroblasts; format: cell-based; conditions: IK-3 at the highest concentration (5 μM); 1,25D
Description: The ability of the polypeptide RSKAKNPLYRRRRRRRRR to alter UV-induced oxidative damage of cell-derived lipids was examined using the TBARS thiobarbituric acid-reactive substances (TBARS) lipid peroxidation assay.
After irradiation or sham-irradiation of dermal fibroblasts, supernatants (900 μL) were collected. In brief, 90 μL of butylated hydroxytoluene (2% w/w in ethanol) was added and samples kept frozen (−20° C.) until the TBARS assay. Petri dishes were washed twice with 1 mL of HBSS, cells scraped in 600 μL of water and 60 μL of 0.5% aqueous Triton X100 added to this solution, for protein determination carried out by the Lowry method (Lowry O H et al, J. Biol. Chem., 1951, 193:265-275). TBARS were fluorometrically assayed as described (Morlière P et al, Biochim. Biophys. Acta, 1991, 1084:261-268). Briefly, thawing samples were heated in the presence of thiobarbituric acid in acidic conditions, and TBARS extracted with 1-butanol and fluorometrically quantified (λexc=515 nm and Aem=550 nm). Tetraethoxypropane, which quantitatively yields the malondialdehyde-thiobarbituric acid adduct in the assay conditions, was used for calibration. TBARS values, expressed in malondialdehyde (MDA) equivalents, were normalized to the cell protein for each Petri dish. Each TBARS determination was performed in triplicate (e.g., with three Petri dishes per data point).

[3] = system: MMP1; assay: MMP1 immunohistochemical staining in UV-irradiated human skin explants; format: cell-based; conditions: 3 hrs post irradiation/treatment; Calcitriol 1 nM; IK34720 50, 250 or 500 μM
Description: Human skin (2×human explant tissues) removed at elective surgery was cleaned, dissected and cut into pieces of approx. 5 mm×5 mm. Each piece was placed in a well of a 96 well plate, with individual plates prepared to assess the effects 3 hrs post treatment. Skin was subjected to UV-radiation from solar-simulated UV source for 1.5 h (UVR), or non-irradiation (SHAM), and treated immediately after with a vehicle control, Calcitriol (1 nM) or the polypeptide IK34720 (SEQ ID NO: 3) at concentrations of 50 μM, 250 μM or 500 μM. In FIG. 17, IK50, IK250 and IK500 as μM concentrations refers to 15 μg, 75 μg and 150 μg of IK34720 per 120 μL culture medium/explant, respectively.
Samples harvested at 3 hrs were fixed, sectioned, immunohistochemically stained for MMP1 and quantified for MMP1 expression, by expressing epidermal area stained for MMP1 as a function of total epidermal area examined.

[4] = system: human skin explants; assay: CPD formation in UV-irradiated human skin explants; format: cell-based; conditions: 3 hrs post irradiation/treatment; Calcitriol 1 nM; IK34720 50, 250 or 500 μM
Description: Human skin removed at elective surgery was cleaned, dissected and cut into pieces of approx. 5 mm×5 mm. Each piece was placed in a well of a 96 well plate, with individual plates prepared to assess the effects 3 hrs post treatment. All samples were performed in triplicate for each treatment. Skin was subjected to UV-radiation from solar-simulated UV source for 1.5 h (UVR), or non-irradiation (SHAM). Given that human skin is thicker than mouse skin, human skin explants were exposed to a radiation dose three times higher than that used for mouse skin, i.e., 20 J/cm2 versus 7 J/cm^2, respectively, and the output spectrum of the laboratory solar simulator has previously been reported (Rybchyn M S et al, J Invest Dermatol. 2018 May; 138 (5): 1146-1156) and treated immediately after with a vehicle control, Calcitriol (1 nM) or the polypeptide IK34720 (SEQ ID NO: 3) at concentrations of 50 μM, 250 μM or 500 μM.
Samples harvested at 3 hrs were fixed, section, stained and quantified as described in Example 5.

[5] = system: primary keratinocytes; assay: CPD detection by IHC in keratinocytes 3 h following UV-irradiation; format: cell-based; conditions: 5 μM after ssUV; fixed 3 h after UV
Description: An in vitro assay was conducted allowing for densitometry analysis of CPD detection by IHC in keratinocytes 3 h following UV-irradiation in accordance with the following protocol.
Keratinocytes were harvested and cultured as described above at Example 2. Samples were split into two groups, being UV irradiated (UVR) and non-UV irradiated (SHAM). UV-irradiation was performed by solar simulated UV-irradiation for cells, also as described above at Example 2. Irradiation solution was PBS containing 5 mM D-glucose. […]
Harvested keratinocytes were plated on poly-D-lysine coated coverslips in 96 well plates and irradiated (or sham treated) as described above in at Example 2 in PBS containing 5 mM D-glucose. Keratinocytes were fixed 3 h after UV-irradiation. Immunohistochemistry and image analysis were performed as described previously (Gordon-Thomson et al., Photochem Photobiol Sci, 2012, 11 (12): 1837-47; Gupta et al., vide supra, Rybchyn M S et al., J Invest Dermatol, 2018; 138 (5): 1146-1156). Thymine dimers were detected using the anti-thymine dimer antibody (Sigma-Aldrich, Missouri, USA) at 10 μg/mL, and quantified as an index of CPD, as previously described (Douki T and Cadet J, Biochemistry, 2001, 40 (8): 2495-501).
Following irradiation, keratinocytes were treated with either Calcitriol, vehicle control (Veh) or the polypeptide IK34720 (SEQ ID NO: 3; “IK”) IK14800; (RSKAKNPLYRRRRRRRRR), RSKAKNPLY (IK94000) and RRRRRRRRR (IK00900), at concentrations of 5 μM.

[6] = biological target: T1, polypeptide IK34720 (RSKAKNPLYRRRRRRRRR)
T1 chain: RSKAKNPLYRRRRRRRRR

Molecule: CCNC(=O)[C@H]1O[C@@H](n2cnc3c(N)nc(NCCc4ccc(CCC(=O)O)cc4)nc32)[C@H](O)[C@@H]1O [CGS-21680, reference compound]
- wound closure percentage ([1]; Day 5 to Day 11, vs negative control (PBS)): increase wound healing

Molecule: C=C1/C(=C\C=C2/CCC[C@]3(C)[C@@H]([C@H](C)CCCC(C)(C)O)CC[C@@H]23)C[C@@H](O)C[C@@H]1O [Calcitriol, 1,25-dihydroxyvitamin D3, reference compound]
- significant difference in TRS (TBA reactive substances) between Sham and UV irradiation [2]: not seen
- cells staining for MMP-1 [3]: fewer stained cells
- cells stained for CPDs [4]: fewer stained cells

Molecule: RRRRRRRRR [IK00900]
- CPD levels compared to vehicle-treated UV-irradiated keratinocytes [5]: decrease CPD levels; also recorded: statistically significant (*p<0.05) reduction in CPD levels
- reduction in CPD levels compared to Calcitriol [5]: comparable reduction in CPD levels to keratinocytes treated with Calcitriol

Molecule: RSKAKNPLY (not fully specified (some residues)) [IK94000]
- CPD levels compared to vehicle-treated UV-irradiated keratinocytes [5]: decrease CPD levels; also recorded: statistically significant (*p<0.05) reduction in CPD levels
- reduction in CPD levels compared to Calcitriol [5]: comparable reduction in CPD levels to keratinocytes treated with Calcitriol

Molecule: rrrrrrrrrylpnkaksr ([dR][dR][dR][dR][dR][dR][dR][dR][dR][dY][dL][dP][dN][dK][dA][dK][dS][dR]) [IK236770]
- wound healing (wound closure % percentage) ([1]; day 5, vs negative control): statistically significant increase in wound healing

B1: Human rheumatoid synovial fibroblast MMP-1 proenzyme, activated with APMA (protein)
chain: FVLTEGNPRWEQTHLTYRIENYTPDLPRADVDHAIEKAFQLWSNVTPLTFTKVSEGQADIMISFVRGDHRDNSPFDGPGGNLAHAFQPGPGIGGDAHFDEDERWTNNFREYNLHRVAAHELGHSLGLSHSTDIGALMYPSYTFSGDVQLAQDDIDGIQAIYGRSQNPVQPIGPQTPKACDSKLTFDAITTIRGEVMFFKDRFYMRTNPFYPEVELNFISVFWPQLPNGLEAAYEFADRDEVRFFKGNKYWAVQGQNVLHGYPKDIYSSFGFPRTVKHIDAALSEENTGKTYFFVANKYWRYDEYKRSMDPGYPKMIAHDFPGIGHKVDAVFMKDGFFYFFHGTRQYKFDPKTKRILTLQKANSWFNCRKN
- MMP-1 enzyme activity in vitro (fluorimetric cleavage of Mca-Pro-Leu-Gly-Leu-Dap-Ala-Arg; peptide at 5, 10, 800 and 1000 uM pre-incubated with 8 nM activated enzyme) [6]: inhibits MMP-1 activation in a dose dependent manner
